Values quoted from earlier work as cited in patent publication US10278390B2, “Antimicrobial transparent plastic in the form of film or extruded shape” (priority 2016, dated 2019).

Test system: bacteria

[Ag+] [silver ions]
concentrations at which the metabolism of bacteria is adversely affected: 0.01 to 0.1 mg/L
